Drawing on PMC8815074, “Development of ^11C-Labeled ASEM Analogues for the Detection of Neuronal Nicotinic Acetylcholine Receptors (α7-nAChR)” (ACS Chemical Neuroscience, 2022), this text covers inhibition for 1 compound.

This assay has as its target T1, α7-nAChR (Rattus norvegicus, UniProt Q05941).
T1 construct: gene Chrna7; native receptor in rat brain sections
Put plainly: radioligand autoradiography ([…] and 3H, […]) with blocking by ASEM and unlabeled KIn-83. As to conditions: read-out: % of total binding displaced at 10 uM.

T1 sequence (Q05941 23-502): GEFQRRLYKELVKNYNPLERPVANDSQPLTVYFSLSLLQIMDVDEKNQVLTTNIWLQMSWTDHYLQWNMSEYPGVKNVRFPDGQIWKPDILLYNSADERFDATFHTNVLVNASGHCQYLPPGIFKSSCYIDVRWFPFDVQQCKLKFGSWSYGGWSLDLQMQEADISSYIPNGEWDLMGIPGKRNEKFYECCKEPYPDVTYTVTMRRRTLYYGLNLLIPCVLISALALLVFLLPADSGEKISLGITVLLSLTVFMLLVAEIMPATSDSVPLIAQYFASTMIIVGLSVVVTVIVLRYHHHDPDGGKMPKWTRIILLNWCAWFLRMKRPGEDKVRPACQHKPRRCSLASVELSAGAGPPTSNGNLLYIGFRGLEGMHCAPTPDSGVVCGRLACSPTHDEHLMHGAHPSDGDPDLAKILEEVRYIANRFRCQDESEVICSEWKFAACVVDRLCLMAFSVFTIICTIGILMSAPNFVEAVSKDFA

For `COc1cccc2c1S(=O)(=O)c1cc(N3CCN4CCC3CC4)ccc1-2` [KIn-83], the inhibition at 10 µM amounted to 80%.
